Reference: a melting point compilation (Tetko et al.; mined from patent text by program, amines drawn as free bases though some values may be those of a salt)

melting point | Compound
194 to 195 °C | Cc1c(Br)sc(N2C(=O)c3ccccc3C2=O)c1C(=O)c1ccc(Cl)cc1
180 to 182 °C | CCOC(=O)C1=Cc2cc(Cl)cnc2NC1C(F)(F)F (stereo not given)
197 to 198 °C | CC(C)(C)OC(=O)c1sc(Nc2ccc(Cl)cc2)c2c1CCc1cnoc1-2
208 to 210 °C | O=c1[nH]nc(-c2ccc(Cl)cc2)n1Cc1ccccc1
149 °C | COCCC(=O)OC[C@@H]1CC(c2ccc(-c3ccc(N4C[C@H](Cn5ccnn5)OC4=O)cc3F)cn2)=NO1
214 °C | CC(=O)c1ccc(-c2cc(-c3c(-c4ccccn4)nc4ccccn34)ccn2)cc1
202 to 210 °C | CCS(=O)(=O)NCc1ccc2[nH]cc(CCCN3CCN(c4ncncc4OC)C(C)C3)c2c1 (stereo not given)
70 to 73 °C | COC(=O)C(=C(C)NCC(O)CO)c1nc(NC(C)=O)c([N+](=O)[O-])nc1Cl (stereo not given)
222 to 225 °C | COc1ccc(Nc2nc(-c3ccc(OC)c(OC)c3)cs2)nc1
122 to 123 °C | N#Cc1c(-c2ccc(Cl)cc2)c(-c2ccc(Cl)cc2)nn(CCO)c1=O
152 to 153 °C | CCC(C)(Oc1ccc(CNc2ccc(Cl)cc2)cc1)C(=O)O (stereo not given)
169 to 170 °C | CCOP(=O)(/C=C/c1cn(-c2ccccc2)nc1OCc1ccc(OCc2nc(-c3ccco3)oc2C)c(C(=O)O)c1)OCC
156 °C | CC(C)c1cccc(C(C)C)c1NC(=O)NCC1(SCc2ccccc2)CCCCC1
154 to 156 °C | COC(=O)c1cc(S(=O)(=O)N(C)C)c(F)c(F)c1Nc1ccc(I)cc1Cl
169 to 170 °C | Cc1nc2c(N)nc3ccccc3c2n1CCCCNC(=O)C1CCCC1
200 to 202 °C | COc1ccc(C=CC(=O)O)cc1-c1cc2c(cc1OCc1ccccc1)C(C)(C)CCC2(C)C
165 to 166 °C | COc1ccc(S(=O)(=O)N2CCc3cccc(-c4ccc(CN(C)C)cc4)c32)cc1
175 to 177 °C | CNC1=NS(=O)N=C1NCCSCc1csc(NC(=N)N)n1 (stereo not given)
75 to 80 °C | COC(=O)c1cc2c(C)ccc(C)c2n1C(=O)OC
82 to 83 °C | COc1ccc2cc(C#N)sc2c1
114 to 115 °C | CN(CCCNC(=S)c1cc(C(C)(C)C)c(O)c(C(C)(C)C)c1)CCOc1ccc2c(c1)OCO2
122 to 123 °C | COc1ccc(OC)c2c1C(=O)C=C(SCCCCO)C2=O

melting point | Compound
180 to 183 °C | Cc1cc(Nc2ccccc2C(=O)O)n(Cc2cccnc2)n1
93 to 98 °C | COC(=O)C(C(=O)c1ccc(Cn2ccc3ccc(NC(=O)CC4CCCC4)cc32)c(OC)c1)S(=O)(=O)c1ccccc1 (stereo not given)
210 °C | CCCC1=C(C(=O)OCC)C(c2ccccc2OC(C)C)c2c[nH]nc2N1 (stereo not given)
> 260 °C | CCCn1c(C)nc2cc(C(=O)O)ccc21
176 to 177 °C | COc1ccc(C(=O)Nc2ccccc2)cc1NC(=S)Nc1cccc(C(C)=O)c1
149 to 150 °C | c1ccc2c(c1)nc1c3c(onc32)CCC1
153 to 156 °C | COc1ccc([C@@H]2Sc3ccccc3N(CCN(C)C)C(=O)[C@@H]2OC(=O)c2ccc([N+](=O)[O-])cc2Cl)cc1
128 to 130 °C | CC(C)(C)[C@@H](CO)NS(=O)(=O)c1ccc(Cl)cc1
92 to 94 °C | COC(=O)N(c1cc(C)ccc1C(=O)c1ccc(F)cc1)C(C)C
31 to 33 °C | CCCC(CNc1nc(C)c(OC)c(C)n1)c1ccccc1 (stereo not given)
170 to 171 °C | COCC(=O)Nc1c(Cl)c(C)cc2nc(OC)c(OC)nc12
229 to 230 °C | CCC(=O)Nc1cccc(-c2ccc(=O)[nH]n2)c1
111 °C | C=C(C)Cn1c(=O)n(C)c(=O)c2cc(Cc3ccc(OC)cc3)sc21
50 to 54 °C | COCOc1ccc(CSc2cnn(C(C)(C)C)c(=O)c2Cl)cc1
105 to 106 °C | CCOC(=O)c1cc(Cl)c(N)c2c1OCCO2
133 °C | COc1ccccc1C(=O)NCCc1ccc(-c2ccc(OC(C)(C)C(=O)O)cc2)cc1
98.4 to 100 °C | CNC(=O)n1cnc(C)c1Br
151 to 153 °C | CCC(C)(C)N=C(NC#N)Nc1cc(Cl)cc(Cl)c1
255 °C | CCOc1ccc2c(c1)n(C1CCOCC1)c(=O)n2S(=O)(=O)c1ccc(C(=O)O)cc1OC
177 to 178 °C | Cc1oc(-c2ccccc2)nc1CCOc1ccc(CCC(=O)NC(N)=O)cc1
226 to 227 °C | CC1(c2ccc(N)cc2)C(=O)Nc2cc(Cl)cc(Cl)c2C1=O (stereo not given)

Further lines, the molecule ahead of its results:

Compound | melting point
Cc1ccc(S(=O)(=O)OCC2COc3ccc([N+](=O)[O-])c(C=CC#N)c3O2)cc1 (stereo not given) | 117 to 118 °C
CCC(O)CN1N=C(c2ccccc2)CC(O)C1=O (stereo not given) | 92 to 94 °C
CC(C)N1Cc2ccccc2N(CCN2CCC(c3c[nH]c4cc(F)ccc34)C2)S1(=O)=O (stereo not given) | 50.8 to 54.4 °C
COc1ccc2c(c1)C(C1CCC1)=NCC2 | 44 to 46 °C
CC(C)CN(Cc1nc(-c2ncn3c2CN(C)C(=O)c2ccccc2-3)no1)CC(C)C | 170 to 172 °C
CC(C)CC(NC(c1ccc(-c2ccc(S(C)(=O)=O)cc2)cc1)C(F)(F)F)C(=O)NC(C#N)CC(=O)OCc1ccccc1 (stereo not given) | 111 °C
CCc1cc([N+](=O)[O-])cc(C=O)c1O | 93.5 to 94 °C
CS(=O)(=O)C(=C1CN(C(c2ccccc2)c2ccccc2)C1)c1cccc(N2CCCC2)c1 | 153 °C
N#Cc1ccc(-c2ccc(OCc3ccccc3)cc2)cc1 | 150 to 152 °C
CC(C)[C@@H](NS(=O)(=O)c1ccc2ccccc2c1)C(=O)O | 170 to 172 °C
N#Cc1cc(F)c(-n2c(=O)cc(C(F)(F)F)[nH]c2=O)cc1Oc1cccc2c(O)cccc12 | 168 °C
CC(C)CN1C(=O)C2=C3SC(S(N)(=O)=O)=CC1CC(C2)S3(=O)=O (stereo not given) | 239 to 241 °C
Cc1ccc(-n2nc(-c3ccc(O)cc3)c3cccnc32)cc1 | 201 to 203 °C
CCCCCCCCCCCCCCCC1CCCC(c2ccc(O)cc2)(c2ccc(O)cc2)C1 (stereo not given) | 104 °C
CCCCCCCCCCCCC#CC(O)(CCCCC(=O)O)CCCCC(=O)O | 65 to 66 °C
O=C1OC(CCC#Cc2ccccc2)C(O)=C1O (stereo not given) | 145 to 146 °C
CC1(C)C(=O)NCCN1C(=O)C(N)Cc1ccccc1 (stereo not given) | 70 to 73 °C
O=C1Nc2ccccc2N(C(=O)CN2CCOCC2)c2ncncc21 | 240 to 242 °C
CCOCCc1cc(O)ccc1N | 102 °C

Compound | melting point
NS(=O)(=O)c1ccc(-n2nc(C(F)(F)F)cc2-c2ccc(-c3ccco3)cc2)cc1F | 151 °C
O=C1NCC2CC1c1ccccc12 (stereo not given) | 172 to 173 °C
CC(C(=O)O)c1ccc(CCNC(=O)c2cccc3cccnc23)cc1 (stereo not given) | 143 to 144 °C
Cn1cc(C=O)c2c3sc4ccccc4c3ccc21 | 224 °C
O=C(O)c1cnc(-c2ccccc2OCC2CC2)[nH]c1=O | 219 to 220 °C
CCCCCNC(=O)CCCO | 41 to 43 °C
CC1(C)CC(=O)C2=C(C1)NC1=C(C(=O)CC(C)(C)C1)C2c1cccc(Oc2cnccn2)c1 | 204 to 207 °C
N#CN=C(Nc1cccnc1)NC(NC(=O)c1ccc(Cl)cc1)C1CCCCC1 (stereo not given) | 190 to 192 °C
CCCc1nc2ncnn2c(N)c1CCc1ccccc1 | 190 to 191 °C
CC12CCC(=O)C=C1CC(O)C1C2CCC2(C)C(O)CCC12 (stereo not given) | 191 to 193 °C
Cc1ccc(S)c(C(=O)O)c1 | 56 to 58 °C
O=C(Oc1ccccc1Cl)c1ncn2c1[C@@H]1CCCN1C(=O)c1c(Cl)cccc1-2 | 214 to 215 °C
CC(=O)Nc1ccccc1CS(=O)c1nccn1-c1ccccn1 (stereo not given) | 172 to 173 °C
CN1CCN(c2ccc(NC=C3C(=O)NC(=O)c4ccc(OCCN5CCOCC5)cc43)cc2)CC1 | 142 to 143 °C
CC(=O)O[C@H](CC(=O)c1ccccc1)C(=O)O | 118 to 121 °C
N#Cc1ncn2c(C(F)(F)F)cc(-c3ccccn3)nc12 | 205 °C
COC(=O)CCc1ccc(NC(=O)NNC=O)cc1 | 146 to 148 °C
O=C1CN(c2ccccc2)C(=O)N1C(=O)c1ccc(Cl)cc1 | 182 to 184 °C
O=C1Nc2ccc(Cl)cc2C1(Cl)c1ccccc1OC(F)(F)F (stereo not given) | 185 °C

Compound | melting point
O=C(Oc1ccccc1)N1CCC2(CC1)SC(c1ccc(Cl)c(Cl)c1)c1ccccc12 (stereo not given) | 200 to 202 °C
CSC1=Nc2ccccc2C2=NCC(CBr)N12 (stereo not given) | 162 to 163 °C
O=C(NC1CC1c1ccc(-c2ncn(-c3ccc(OC(F)(F)F)cc3)n2)cc1)Oc1ccccc1 (stereo not given) | 171 to 173 °C
CC(C)SSCC12CCC(O)CC1=CCC1C3CCC(=O)C3(C)CCC12 (stereo not given) | 168 to 169 °C
CC(C)N(C(=O)C(C)C(C#N)(c1ccccc1)c1ccccc1)C(C)C (stereo not given) | 195 to 205 °C
CCCCCCCCCCCCCCOc1ccc(CC(=O)Nc2cccc(-c3nccs3)c2)cc1 | 128 to 131 °C
c1ccc2c(c1)CC1(c3c[nH]cn3)CCCC21 (stereo not given) | 171 to 174 °C
CCCCC1=NOC(Cc2ccccc2)C(=O)N1 (stereo not given) | 82 to 85 °C
CN1CC(=O)OC2CCN(C(=O)c3ccc(NC(=O)c4ccccc4Cl)cc3)c3ccccc3C21 (stereo not given) | 286 to 290 °C
O=C(Nc1ccccc1)N1CC(Oc2ccc(C(F)(F)F)cc2)C1 | 174 to 176 °C
CCCCCCCCCCCCCCCCCc1cc(O)c(CC)c(=O)o1 | 101 to 102 °C
CCCCc1nc(C2CCCCC2)nn1Cc1ccc(-c2ccccc2-c2nnn[nH]2)cc1 | 125 to 127 °C
CS(=O)(=O)N1CCC(COCc2cc(C(F)(F)F)cc(C(F)(F)F)c2)(c2ccccc2)CC1 | 102 to 104 °C
CC(C)N(CCC(CCN(C)C)(C(N)=O)c1ccccc1)C(C)C (stereo not given) | 75 to 78 °C
O=C(NCCCCCn1ccnc1)c1ccc(Cl)nc1 | 110 to 112 °C
Cc1cc(F)ccc1-c1ccc(S(=O)(=O)N2c3ccccc3CC2C(=O)NCc2ccccc2N)cc1 (stereo not given) | 92 to 96 °C
CCCN(CCC)C1CCc2cc(NC(C)=O)ccc2C1 (stereo not given) | 119 to 121 °C
O=C1c2cccc(NC(=S)Nc3ccccn3)c2C2CCCCN12 (stereo not given) | 195 °C
CC1(C)C(=O)N(c2ccc([N+](=O)[O-])c(C(F)(F)F)c2)C(=O)N1CCCCCCCN1C(=O)N(c2ccc([N+](=O)[O-])c(C(F)(F)F)c2)C(=O)C1(C)C | 137 to 138 °C
